From US4931429A, “α-aminoacyl β-aminoacyl aminodiols as anti-hypertensive agents” (G. D. Searle & Co., priority 1987, dated 1990)

Experiments:
Human renin = target: T1, Human renin (Homo sapiens, UniProt P00797); experiment: human renin inhibition test; assay type: biochemical; details: human plasma substrate, pH 7.4, two hours at 37° C., angiotensin I by radioimmunoassay
T1 construct: purchased National Institute for Biological Standards, London
T1 sequence (P00797 67-406): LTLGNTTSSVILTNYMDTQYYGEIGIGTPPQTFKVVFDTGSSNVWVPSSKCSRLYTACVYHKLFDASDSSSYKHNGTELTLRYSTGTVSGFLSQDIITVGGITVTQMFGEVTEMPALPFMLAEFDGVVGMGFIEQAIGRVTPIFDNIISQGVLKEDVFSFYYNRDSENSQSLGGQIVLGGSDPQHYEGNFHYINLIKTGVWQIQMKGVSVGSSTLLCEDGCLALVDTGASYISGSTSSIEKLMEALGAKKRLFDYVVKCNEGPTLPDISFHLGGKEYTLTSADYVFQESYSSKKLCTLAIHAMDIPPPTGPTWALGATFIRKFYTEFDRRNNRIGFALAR
Protocol: The human renin inhibition test has been previously described in detail in papaioannou, et al. (1985) Clinical and Experimental Hypertension A7(9), 1243-1257. Human renin was obtained from the National Institute for Biological Standards, London. In a total volume of 0.25 mL 100 mM Tris-acetate buffer at pH 7.4, 25 x 10-6 Goldblatt units of renin, 0.05 mL of plasma from human volunteers taking oral contraceptives, 6.0 mM sodium EDTA, 2.4 mM phenylmethyl sulfonyl fluoride, 1.5 mM 8-hydroxyquinoline, 0.4 mg/mL BSA, and 0.024 mg/mL neomycin sulfate were incubated for two hours at 37° C. in the presence or absence of renin inhibitors. The produced angiotensin I was determined by radioimmunoassay (New England Nuclear kit). Compounds of Formula I to be assayed were solubilized in either ethyl alcohol or DMSO and diluted with 100 mM Tris-acetate buffer at pH 7.4 to the appropriate concentration. The final concentration of organic solvent in the reaction mixture was less than 1%. Control incubations at 37° C. were used to correct for effects of organic solvent on renin activity.

Hog renin = experiment: hog renin inhibition assay; assay type: biochemical; details: synthetic tetradecapeptide substrate, pH 7.4, one hour at 37° C., angiotensin I by radioimmunoassay
Protocol: The hog renin inhibition assay was performed in a manner similar to the human renin assay, with the following modifications. Hog renin was purchased from Sigma Chemical Co. and the synthetic tetradecapeptide substrate was obtained from Peninsula Labs Inc. In a final volume of 0.25 mL 100 mM Tris-acetate buffer at pH 7.4, 0.125m units hog renin, 20 micromolar tetradecapetide, 6 mM disodium EDTA, 3.2 mM phenylmethyl sulfonyl fluoride, 3 mM 8-hydroxyquinoline, 1.2 mg/mL BSA and 0.024 mg/mL neomycin sulfate were incubated for one hour at 37° C. in the presence or absence of renin inhibitors. The amount of angiotensin I produced was determined as for the human renin inhibition assay.

CC(CNC(=O)[C@H](Cc1ccccc1)NC(=O)OC(C)(C)C)C(=O)N[C@@H](CC1CCCCC1)[C@@H](O)CO (stereo partly drawn) [Example 8, Boc-L-phenylalaninyl-D,L-α-methyl-β-alaninamide of (2S,3R)-2-amino-1-cylohexyl-3,4-dihydroxybutane]
IC50 (Human renin): 2000 nM
IC50 (Hog renin): 2100 nM

CC(C)C[C@H](O)[C@H](O)[C@H](CC1CCCCC1)NC(=O)C(C)CNC(=O)[C@H](Cc1ccccc1)NC(=O)OC(C)(C)C (stereo partly drawn) [Example 9, Boc-L-phenylalaninyl-D,L-α-methyl-β-alaninamide of (2S,3R,4S)-2-amino-1-cyclohexyl-3,4-dihydroxy-6-methylheptane]
IC50 (Human renin): 210 nM
IC50 (Hog renin): 12.5 nM
